The structures appear in SMILES notation. Counter-ions that a name gives are not always drawn.

The text below walks through data of article PMC9351488 (Proceedings of the National Academy of Sciences of the …, 2022).

Holding throughout (type): in vivo, mouse
In series [1] the test system is spinal cord of naïve WT mice. Description: Spinal cord immunohistochemistry. The settings on record: i.t. daily for 7 d, H-20 30 nmol or morphine 2 nmol.
Series [2] relates to mice. Description: Antinociceptive tolerance in CFA model. The settings on record: i.t. 7 consecutive days, H-20 30 nmol or morphine 20 nmol.
Series [3] relates to mice. Briefly: Conditioned place preference. As to conditions: i.t. H-20 30 nmol or morphine 2 nmol.
Series [4] has as its system mice. Description: Open field test. As to conditions: i.t., 30 min before test.
Series [5] deals with mice. Description: Rotarod test. The settings on record: i.t. H-20 30 nmol or morphine 2 nmol, 15 to 120 min.
In the next series the test system is naïve WT mice. Description: Acute itch behaviors. The settings on record: i.t., counted within 30 min, morphine 2 nmol.

Consider `CN1CC[C@]23c4c5ccc(O)c4O[C@H]2[C@@H](O)C=C[C@H]3[C@H]1C5` [morphine, Morphine hydrochloride], for which, in series [1], the “microglial activation in spinal cord” value was “induced significant microglial activation” and the “number of c-Fos–positive neurons in spinal cord” value is “markedly increased the number of c-Fos–positive neurons”. The “antiallodynic effect after repeated injection (tolerance)” value in the series on mice [2] is “significantly decreased on test day 7”. The CPP response entry with mice [3] is listed as “significant increase in the drug-treated chamber”. Moreover, the “time in center area and frequency of entry into central zone (anxiety)” value with mice [4] is listed as “No intergroup differences were observed”. The time on rotarod entry in the series with mice [5] was “did not change the length of time”. In the series on naïve WT mice, the itch-related scratching behaviors entry was “significantly evoked itch-related scratching behaviors”.
